# Where two headings read alike, the source gives them in different places.
# Key:
# HTT = assay: HiBiT protein abundance assay, HTT (K562 HiBiT knock-in); type: cell-based, human; settings: HiBiT knock-in K562 cells, 24 hours, top dose 10 μM
# Experimental: (§1) Compounds described herein were used to screen for effects on quantitative protein abundance using a HiBit assay system (Promega). Quantitative protein abundance was determined by measuring the protein levels of HiBit-tagged protein targets expressed in cell culture via luminescence using the Nano-Glo HiBiT Lytic Detection System, which uses a split complementation assay format to reconstitute NanoBiT enzyme to generate a luminescent signal. A protein abundance assay was developed such that endogenous protein targets could be modified with the HiBiT peptide tag and their abundance could be assessed after compound treatment. Briefly, K562 cell lines containing a HiBiT-modification were treated with various compounds described herein (e.g., compounds of Formulas (I), or (II)). After treatment for 24 hours, the protein abundance of a specific target was determined by measuring luminescence.
# (§2) Cells were maintained in IMIDM with 10% FBS. Before the assay, cells were diluted with […] growth media (IMIDM+[…] media) and were seeded in a 384-well plate at a density of 10000 cells/well (for each cell line listed in Table 6). Each compound was prepared as a 10-point 3-fold serial dilution in DMSO with the top dose at a final concentration of 10 μM in the well. Unmodified K562 cells were added at the previously specified density with DMSO to serve as an assay baseline and positive control (PC) and DMSO only with the respective modified cell lines was added to the negative control (NC) columns. Final DMSO concentration was kept at or below 0.25%. Treated cell plates were placed in an incubator at 37° C. with […] for 24 hours. After 24 hours, 25 μL of Complete HiBit Lytic reagent was added to each well at room temperature (e.g. one plate requiring 10 mL Lytic Buffer, 100 μL LgBiT Protein, 200 μL Lytic Substrate), shaken for 5 minutes at 600 RPM, then left to sit for 10 minutes for signal to stabilize before reading on a Spark Cyto plate reader (Tecan) with a 500 ms measurement time.
# (§3) To determine compound effects on protein abundance of each target in Table 6, the percent response for each respective cell line was calculated at each compound concentration as follows:
# (§4) % response=100*(S−PC)(NC−PC)
# (§5) For the normalized response at each concentration, a four-parameter logistical regression was fit to the data and the response was interpolated at the […] to determine a concentration for protein abundance at 50% (IC50) the untreated control.
# MYB mRNA = assay: RT-qPCR splicing assay, MYB mRNA canonical (CJ) and alternative (AJ) junction; type: cell-based, human; settings: Homo sapiens
# Experimental: (§6) Compounds described herein were used to modulate RNA transcript abundance in cells. The expression of a target mRNA was measured by detecting the formation of an exon-exon junction in the canonical transcript (CJ). A compound mediated exon-inclusion event was detected by observing an increase in formation of a new junction with an alternative exon (AJ). Real-time qPCR assays were used to detect these splicing switches and interrogate the potency of various compounds towards different target genes. A high-throughput real time quantitative PCR (RT-qPCR) assay was developed to measure these two isoforms of the mRNA (CJ and AJ) for exemplary genes, such as HTT, SMN2, and MYB, together with a control housekeeping gene, GAPDH or GUSB or PPIA, used for normalization. Briefly, the A673 or K562 cell line was treated with various compounds described herein (e.g., compounds of Formula (I)). After treatment, the levels of the HTT, MYB, or SMN2 mRNA targets were determined from each sample of cell lysate by cDNA synthesis followed by qPCR.
# (§7) The A673 cell line was cultured in DMEM with 10% FBS. Cells were diluted with full growth media and plated in a 96-well plate (15,000 cells in 100 ul media per well). The plate was incubated at 37° C. with 5% CO2 for 24 hours to allow cells to adhere. An 11-point 3-fold serial dilution of the compounds was made in DMSO then diluted in media in an intermediate plate. Compounds were transferred from the intermediate plate to the cell plate with the top dose at a final concentration of 10 uM in the well. Final DMSO concentration was kept at or below 0.25%. The cell plate was returned to the incubator at 37° C. with 5% CO2 for an additional 24 hours.
# (§8) The K562 cell line was cultured in IMDM with 10% FBS. For K562, cells were diluted with full growth media and plated in either a 96-well plate (50,000 cells in 50 uL media per well) or a 384-well plate (8,000-40,000 cells in 45 uL media per well). An 11-point 3-fold serial dilution of the compounds were made in DMSO then diluted in media in an intermediate plate. Compound was transferred from the intermediate plate to the cell plate with the top dose at a final concentration of 10 uM in the well. Final DMSO concentration was kept at or below 0.25%. Final volume was 100 uL for 96-well plate and 50 uL for 384-well plate. The cell plate was then placed in an incubator at 37° C. with 5% CO2 for 24 hours.
# (§9) The cells were then gently washed with 50 uL-100 uL cold PBS before proceeding to addition of lysis buffer. 30 uL-50 μL of room temperature lysis buffer with DNAse I (and optionally RNAsin) was added to each well. Cells were shaken/mixed thoroughly at room temperature for 5-10 minutes for lysis to take place and then 3 uL-5 μL of room temperature stop solution was added and wells were shaken/mixed again. After 2-5 minutes, the cell lysate plate was transferred to ice for RT-qPCR reaction setup. The lysates could also be frozen at −80° C. for later use.
# (§10) In some cases, a direct lysis buffer was used. An appropriate volume of 3× lysis buffer (10 mM Tris, 150 mM NaCl, 1.5%-2.5% Igepal and 0.1-1 U/uL RNAsin, pH 7.4) was directly added to either K562 or A673 cells in media and mixed by pipetting 3 times. The plates were then incubated at room temperature with shaking/rocking for 20-50 minutes to allow for lysis to take place. After this time, the cell lysate plate was transferred to ice to set up for the RT-qPCR reactions. The lysates could also be frozen at −80° C. for later use.
# (§11) To set up 10 uL RT-qPCR reactions, cell lysates were transferred to 384-well qPCR plates containing the master mix according to the table below. The plates were sealed, gently vortexed, and spun down before the run. The volumes were adjusted accordingly in some instances where the reaction was carried in 20 μL. The table below summarizes the components of the RT-qPCR reactions:
# (§12) The RT-qPCR reaction was performed using a QuantStudio (ThermoFisher) under the following fast cycling conditions. […]
# SMN2 mRNA = assay: RT-qPCR splicing assay, SMN2 mRNA; type: cell-based, human; settings: Homo sapiens, canonical junction qPCR panel, Table 4; read-out: SMN2 IC50 (decrease in CJ mRNA levels)
# Experimental: as §6, §7, §8, §9, §10, §11, §12
# MYB = assay: HiBiT protein abundance assay, MYB (K562 HiBiT knock-in); type: cell-based, human; settings: HiBiT knock-in K562 cells, 24 hours, top dose 10 μM
# Experimental: as §1, §2, §3, §4, §5
# HTT mRNA = assay: RT-qPCR splicing assay, HTT mRNA canonical (CJ) and alternative (AJ) junction; type: cell-based, human; settings: Homo sapiens
# Experimental: as §6, §7, §8, §9, §10, §11, §12
# Target C = assay: HiBiT protein abundance assay, Target C (K562 HiBiT knock-in); type: cell-based, human; settings: HiBiT knock-in K562 cells, 24 hours, top dose 10 μM
# Experimental: as §2, §3, §4, §5
# K562 cells = assay: Cell Titer Glo 2.0 cell viability (toxicity) assay, K562; settings: 500 cells/well, 72 hours
# [1] = MYB alternative junction mRNA, RT-qPCR, read-out: MYB AJ (increase in AJ mRNA, AC50)
# [2] = MYB canonical junction mRNA, RT-qPCR, read-out: MYB CJ (decrease in CJ mRNA levels, IC50)
# [3] = canonical junction qPCR panel, Table 4, read-out: MYB IC50 (decrease in CJ mRNA levels)
# [4] = HTT alternative junction mRNA, RT-qPCR, read-out: HTT AJ (increase in AJ mRNA, AC50)
# [5] = HTT canonical junction mRNA, RT-qPCR, read-out: HTT CJ (decrease in CJ mRNA levels, IC50)
# [6] = canonical junction qPCR panel, Table 4, read-out: HTT IC50 (decrease in CJ mRNA levels)
# [7] = RT-qPCR, MYB alternative junction mRNA increase, read-out: MYB AJ (increase in alternative junction mRNA, AC50)
# [8] = RT-qPCR, MYB canonical junction mRNA decrease, read-out: MYB CJ (decrease in canonical junction mRNA, IC50)
# [9] = RT-qPCR, HTT alternative junction mRNA increase, read-out: HTT AJ (increase in alternative junction mRNA, AC50)
# [10] = RT-qPCR, HTT canonical junction mRNA decrease, read-out: HTT CJ (decrease in canonical junction mRNA, IC50)
IC50 (HTT),IC50 (MYB mRNA; [2]),IC50 (MYB mRNA; [3]),IC50 (SMN2 mRNA),IC50 (MYB),IC50 (HTT mRNA; [5]),IC50 (HTT mRNA; [6]),IC50 (Target C),IC50 (MYB mRNA; [8]),IC50 (HTT mRNA; [10]),SMILES,AC50 (MYB mRNA; [1]),AC50 (HTT mRNA; [4]),"Effect of Exemplary Compounds on Cell Viability, K562 (K562 cells)",AC50 (MYB mRNA; [7]),AC50 (HTT mRNA; [9])
< 100 nM,< 100 nM,< 100 nM,< 100 nM,< 100 nM,< 100 nM,< 100 nM,< 100 nM,,,"Cc1nc2c(F)c(O)c(-c3ccc4nc(N5CC[C@@H](NC(C)(C)C)C5)ccc4n3)cc2o1 (single isomer, unassigned) [Compound 256]",< 100 nM,< 100 nM,A (A represents <100 nM),,
> 10000 nM,,,,> 10000 nM,,,> 10000 nM,,,CN(C(=O)Nc1cn[nH]c1)c1cc2nc(N3CCNCC3)ccc2cn1 [Compound 110],,,,,
> 10000 nM,,,,> 10000 nM,,,> 10000 nM,,,O=C(Nc1cn[nH]c1)Nc1cc2nc(N3CCNCC3)ccc2cn1 [Compound 111],,,,,
> 10000 nM,,,,> 10000 nM,,,> 10000 nM,,,O=C(NCc1ccn[nH]1)Nc1cc2nc(N3CCNCC3)ccc2cn1 [Compound 112],,,,,
100 to 1000 nM,100 to 1000 nM,100 to 1000 nM,100 to 1000 nM,100 to 1000 nM,100 to 1000 nM,100 to 1000 nM,100 to 1000 nM,,,Cc1cn2cc(-c3ccc4nc(C5CCNCC5)ccc4n3)c(O)c(C)c2n1 [Compound 151],100 to 1000 nM,100 to 1000 nM,,,
< 100 nM,< 100 nM,,,< 100 nM,< 100 nM,,< 100 nM,,,Cn1cc2cc(-c3ccc4cc(C5CCNCC5)ccc4n3)c(O)c(F)c2n1 [Compound 241],< 100 nM,< 100 nM,A (A represents <100 nM),,
100 to 1000 nM,,,,< 100 nM,,,100 to 1000 nM,,,"CNC(=O)c1nc(-c2cc3cn(C)nc3c(C)c2O)nc2ccc(N3CCNCC3)cc12 [Compound 501, 2-(6-hydroxy-2,7-dimethylindazol-5-yl)-N-methyl-6-(piperazin-1-yl)quinazoline-4-carboxamide]",,,A (A represents <100 nM),,
,,1000 to 10000 nM,100 to 1000 nM,,,100 to 1000 nM,,1000 to 10000 nM,100 to 1000 nM,"Cc1nc2c(F)cc(-c3ncc4cc(N5C[C@@H](C)N[C@@H](C)C5)ccc4n3)cn2c1F [Compound 837, 2-{3,8-difluoro-2-methylimidazo[1,2-a]pyridin-6-yl}-6-[(3R,5S)-3,5-dimethylpiperazin-1-yl]quinazoline]",,,C (C represents 1000-9999 nM),1000 to 10000 nM,1000 to 10000 nM
,,100 to 1000 nM,< 100 nM,,,> 10000 nM,,100 to 1000 nM,> 10000 nM,COc1nc(-c2ncc3cc(N4C[C@@H](C)N[C@@H](C)C4)ccc3n2)cn2cc(C)nc12 [Compound 838],,,C (C represents 1000-9999 nM),100 to 1000 nM,> 10000 nM
,,1000 to 10000 nM,100 to 1000 nM,,,> 10000 nM,,1000 to 10000 nM,> 10000 nM,C[C@H]1CN(c2ccc3nc(-c4cc(F)c5nn(C)c(F)c5c4)ncc3c2)C[C@H](C)N1 [Compound 924],,,C (C represents 1000-9999 nM),1000 to 10000 nM,1000 to 10000 nM
,,1000 to 10000 nM,100 to 1000 nM,,,1000 to 10000 nM,,1000 to 10000 nM,1000 to 10000 nM,C[C@@H]1CN(c2ccc3nc(-c4cc(F)c5nn(C)c(F)c5c4)ncc3c2)C[C@H](C)N1 [Compound 925],,,C (C represents 1000-9999 nM),1000 to 10000 nM,100 to 1000 nM

SMILES,IC50 (HTT),IC50 (MYB mRNA; [2]),IC50 (MYB mRNA; [3]),IC50 (SMN2 mRNA),IC50 (MYB),IC50 (HTT mRNA; [5]),IC50 (HTT mRNA; [6]),IC50 (Target C),IC50 (MYB mRNA; [8]),IC50 (HTT mRNA; [10]),AC50 (MYB mRNA; [1]),AC50 (HTT mRNA; [4]),"Effect of Exemplary Compounds on Cell Viability, K562 (K562 cells)",AC50 (MYB mRNA; [7]),AC50 (HTT mRNA; [9])
CN1CCC(N(C)c2ccc3nc(-c4cc5cn(C)nc5cc4O)ccc3n2)CC1 [Compound 126],100 to 1000 nM,100 to 1000 nM,100 to 1000 nM,< 100 nM,100 to 1000 nM,100 to 1000 nM,100 to 1000 nM,100 to 1000 nM,,,100 to 1000 nM,100 to 1000 nM,,,
Cn1cc2cc(-c3ccc4nc(N5C[C@H]6CC[C@@H](C5)N6)ccc4n3)c(O)cc2n1 [Compound 135],1000 to 10000 nM,100 to 1000 nM,100 to 1000 nM,< 100 nM,100 to 1000 nM,1000 to 10000 nM,1000 to 10000 nM,1000 to 10000 nM,,,100 to 1000 nM,1000 to 10000 nM,,,

# Reference: patent US20250092065A1, “2-(INDAZOL-5-YL)-6-(PIPERIDIN-4-YL)-1,7-NAPHTHYRIDINE DERIVATIVES AND RELATED COMPOUNDS AS MODULATORS FOR SPLICING NUCLEIC ACIDS AND FOR THE TREATMENT OF PROLIFERATIVE DISEASES” (REMIX THERAPEUTICS INC., priority 2022, published 2025)
